The text below walks through data of US9540358B2, “Tricyclic compounds as anticancer agents” (ICAHN SCHOOL OF MEDICINE AT MOUNT SINAI, priority 2011, dated 2017).

Molecules are shown by their SMILES.

For the first experiment, the system named is H1650 lung cancer cells. The experiment in a line: Cell viability assay (MTT, IC50 determination). Format: cell-based. The settings on record: 48 hours after drug treatment, MTT. The protocol: 89(22): p. […] H1650 lung cancer cells were plated at 150,000 cells per well in a 12 well plate. Twenty-four hours after plating, cells were treated as described with increasing concentrations of drug and control. Forty-eight hours after drug treatment, cells were treated with 100 μL of 3-(4,5-Dimethylthiazol-2-yl)-2,5-diphenyltetrazolium bromide (MTT) and incubated for 2 hours at 37 C. The MTT solution was subsequently replaced with 300 μL of n-propyl alcohol and re-aliquoted to a 96 well plates. Spectrophotometric analysis of each solution was performed using a 96 well plate reader at 600 nm in triplicate.
By IC50 is commonly meant the concentration at which inhibition is half-maximal. A higher IC50 goes with a need for much substance. The compound `COC(=O)NCCCN1c2ccccc2CCc2ccc(Cl)cc21` [Example 9, Methyl (3-(3-chloro-10,11-dihydro-5H-dibenzo[b,f]azepin-5-yl)propyl)carbamate] came in with an IC50 of 30 µM.

Take `COc1ccc(S(=O)(=O)NCCCN2c3ccccc3Sc3ccc(Cl)cc32)cc1` [Example 11, N-(3-(2-chloro-10H-phenothiazin-10-yl)propyl)-4-methoxybenzenesulfonamide]: the “IC50 (Cell Viability Data)” value is “INACTIVE”.

Consider `O=S(=O)(NCCCN1c2ccccc2CCc2ccc(Cl)cc21)c1ccc(Cl)cc1F` [Example 28, N-(3-(3-chloro-10,11-dihydro-5H-dibenzo[b,f]azepin-5-yl)propyl)-4-chloro-2-fluorobenzenesulfonamide], for which the “IC50 (Cell Viability Data)” value is recorded as “INACTIVE”.

Still in this experiment, the particulars now being: Homo sapiens, NCI-H1650, 48 hours after drug treatment, MTT.
In the case of `Cc1ccc(S(=O)(=O)NCCCN2c3ccccc3Sc3ccc(Cl)cc32)cc1` [Example 3, N-(3-(2-chloro-10H-phenothiazin-10-yl)propyl)-4-methylbenzenesulfonamide], half-maximal inhibition (IC50) required 20 µM.

As to `COC(=O)NCCCN1c2ccccc2Sc2ccc(Cl)cc21` [Example 4, Methyl (3-(2-chloro-10H-phenothiazin-10-yl)propyl)carbamate], the IC50 is 10 µM.

The compound `Cc1ccc(S(=O)(=O)NCCCN2c3ccccc3CCc3ccc(Cl)cc32)cc1` [Example 8, N-(3-(3-chloro-10,11-dihydro-5H-dibenzo[b,f]azepin-5-yl)propyl)-4-methylbenzenesulfonamide] returned an IC50 of 20 µM.

For the compound `CN(C)C(=O)NCCCN1c2ccccc2CCc2ccc(Cl)cc21` [Example 10, 3-(3-(3-chloro-10,11-dihydro-5H-dibenzo[b,f]azepin-5-yl)propyl)-1,1-dimethylurea], half-maximal inhibition (IC50) was put at 20 µM.

With `O=S(=O)(NCCCN1c2ccccc2Sc2ccc(Cl)cc21)c1cc(F)cc(F)c1` [Example 13], the 50% inhibitory concentration (IC50) was 18 µM.

Consider `N#Cc1ccc(S(=O)(=O)NCCCN2c3ccccc3Sc3ccc(Cl)cc32)cc1` [Example 14, N-(3-(2-chloro-10H-phenothiazin-10-yl)propyl)-4-cyanobenzenesulfonamide], for which the IC50 was 40 µM.

On to `O=S(=O)(NCCCN1c2ccccc2Sc2ccc(Cl)cc21)c1ccc(Cl)cc1` [Example 15, 4-Chloro-N-(3-(2-chloro-10H-phenothiazin-10-yl)propyl)benzenesulfonamide], for which inhibition was half-maximal at 20 µM (IC50).

In the case of `CN(C)C(=O)NCCCN1c2ccccc2Sc2ccc(Cl)cc21` [Example 17, 3-(3-(2-Chloro-10H-phenothiazin-10-yl)propyl)-1,1-dimethylurea], the 50% inhibitory concentration (IC50) is greater than 50 µM.

Regarding `NCCCN1c2ccccc2CCc2ccccc21` [Example 19, 3-(10,11-dihydro-5H-dibenzo[b,f]azepin-5-yl)propan-1-aminium chloride], the IC50 is 24.4 µM.

On to `O=S(=O)(NCCCN1c2ccccc2CCc2ccc(Cl)cc21)c1ccc(F)cc1` [Example 20, N-(3-(3-chloro-10,11-dihydro-5H-dibenzo[b,f]azepin-5-yl)propyl)-4-fluorobenzenesulfonamide], for which the IC50 was greater than 40 µM.

Take `O=S(=O)(NCCCN1c2ccccc2CCc2ccc(Cl)cc21)c1ccc(C(F)(F)F)cc1` [Example 21, N-(3-(3-chloro-10,11-dihydro-5H-dibenzo[b,f]azepin-5-yl)propyl)-4-(trifluoromethyl)benzenesulfonamide]: the IC50 came to 15.3 µM.

Consider `N#Cc1ccc(S(=O)(=O)NCCCN2c3ccccc3CCc3ccc(Cl)cc32)cc1` [Example 22, N-(3-(3-chloro-10,11-dihydro-5H-dibenzo[b,f]azepin-5-yl)propyl)-4-cyanobenzenesulfonamide], for which the IC50 was found to be 11.1 µM.

The compound `O=S(=O)(NCCCN1c2ccccc2CCc2ccc(Cl)cc21)c1ccc(Cl)cc1` [Example 23, 4-Chloro-N-(3-(3-chloro-10,11-dihydro-5H-dibenzo[b,f]azepin-5-yl)propyl)benzenesulfonamide] gave an IC50 of roughly 25 µM.

`CS(=O)(=O)c1ccc(S(=O)(=O)NCCCN2c3ccccc3CCc3ccc(Cl)cc32)cc1` [Example 24, N-(3-(3-chloro-10,11-dihydro-5H-dibenzo[b,f]azepin-5-yl)propyl)-4-(methylsulfonyl)benzenesulfonamide] returned an IC50 of 15.1 µM.

`COc1ccc(S(=O)(=O)NCCCN2c3ccccc3CCc3ccc(Cl)cc32)cc1` [Example 25, N-(3-(3-chloro-10,11-dihydro-5H-dibenzo[b,f]azepin-5-yl)propyl)-4-methoxybenzenesulfonamide] had an IC50 of less than 40 µM.

`O=S(=O)(NCCCN1c2ccccc2CCc2ccc(Cl)cc21)c1ccc(Cl)cc1Cl` [Example 26, 2,4-dichloro-N-(3-(3-chloro-10,11-dihydro-5H-dibenzo[b,f]azepin-5-yl)propyl)benzenesulfonamide] displayed an IC50 greater than 40 µM.

As to `O=S(=O)(NCCCN1c2ccccc2CCc2ccc(Cl)cc21)c1ccc(Cl)c(Cl)c1` [Example 29, 3,4-dichloro-N-(3-(3-chloro-10,11-dihydro-5H-dibenzo[b,f]azepin-5-yl)propyl)benzenesulfonamide], the IC50 was roughly 25 µM.

`O=S(=O)(NCCN1c2ccccc2CCc2ccc(Cl)cc21)c1ccc(Cl)cc1` [Example 33, 4-chloro-N-(2-(3-chloro-10,11-dihydro-5H-dibenzo[b,f]azepin-5-yl)ethyl)benzenesulfonamide] registered an IC50 of roughly 20 µM.

In turn, `O=S(=O)(NCCN1c2ccccc2CCc2ccc(Cl)cc21)c1ccc(C(F)(F)F)cc1` [Example 34, N-(2-(3-chloro-10,11-dihydro-5H-dibenzo[b,f]azepin-5-yl)ethyl)-4-(trifluoromethyl)benzenesulfonamide] had an IC50 of roughly 20 µM.

For `O=S(=O)(NCCCN1c2ccccc2CCc2ccccc21)c1ccc(Cl)cc1` [Example 35, 4-chloro-N-(3-(10,11-dihydro-5H-dibenzo[b,f]azepin-5-yl)propyl)benzenesulfonamide], the IC50 is roughly 20 µM.

For `O=S(=O)(NCCCN1c2ccccc2CCc2ccccc21)c1ccc(C(F)(F)F)cc1` [Example 36, N-(3-(10,11-dihydro-5H-dibenzo[b,f]azepin-5-yl)propyl)-4-(trifluoromethyl)benzenesulfonamide], the IC50 was roughly 15 µM.

In turn, `O=S(=O)(NCCN1c2ccccc2CCc2ccc(Cl)cc21)c1ccc(OC(F)(F)F)cc1` [Example 37, N-(2-(3-chloro-10,11-dihydro-5H-dibenzo[b,f]azepin-5-yl)ethyl)-4-(trifluoromethoxy)benzenesulfonamide] showed an IC50 of roughly 25 µM.

In the case of `O=S(=O)(NCCCN1c2ccccc2CCc2cc(Cl)ccc21)c1ccc(C(F)(F)F)cc1` [Example 38, N-(3-(2-chloro-10,11-dihydro-5H-dibenzo[b,f]azepin-5-yl)propyl)-4-(trifluoromethyl)benzenesulfonamide], the IC50 was roughly 10 µM.

With `O=S(=O)(NCCCN1c2ccccc2CCc2ccc(Cl)cc21)c1cccc(C(F)(F)F)c1` [Example 39, N-(3-(3-chloro-10,11-dihydro-5H-dibenzo[b,f]azepin-5-yl)propyl)-3-trifluoromethylbenzenesulfonamide], the IC50 was roughly 10 µM.

Consider `O=[N+]([O-])c1ccc(S(=O)(=O)NCCCN2c3ccccc3CCc3ccc(Cl)cc32)cc1` [Example 40, N-(3-(3-chloro-10,11-dihydro-5H-dibenzo[b,f]azepin-5-yl)propyl)-4-nitrobenzenesulfonamide], for which the IC50 is roughly 15 µM.
